Source: the supplement of paper PMC10307832

How the values were obtained:
Assay in all cases: relative viability (nuclei count vs DMSO), 5 days (fraction); higher = more cells survive
ABC-1 = system: ABC-1
Method in brief: (§1)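 The day after seeding in 1536-well plates, lung cancer cell lines were treated by pin tool with a single drug, or with a fixed anchor-drug dose together with five library-drug doses (not always all listed) in √10 steps. After 5 days, a combined fix-and-stain solution (final 0.05% Triton X-100, 1% formaldehyde, 1 ug/ml Hoechst) was added. Nuclei counted on 4× images gave relative viability as treated counts over vehicle counts, reported as the median of duplicate plates.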

COR-L23 = system: COR-L23
Method in brief: as §1

ChaGo-K-1 = system: ChaGo-K-1
Method in brief: as §1

EMC-BAC-2 = system: EMC-BAC-2
Method in brief: as §1

HARA = system: HARA
Method in brief: as §1

HCC-15 = system: HCC-15
Method in brief: as §1

HCC-366 = system: HCC-366
Method in brief: as §1

HCC-78 = system: HCC-78
Method in brief: as §1

HOP-62 = system: HOP-62
Method in brief: as §1

LC-2-ad = system: LC-2-ad
Method in brief: as §1

NCI-H1395 = system: NCI-H1395
Method in brief: as §1

NCI-H1793 = system: NCI-H1793
Method in brief: as §1

NCI-H1944 = system: NCI-H1944
Method in brief: as §1

NCI-H1993 = system: NCI-H1993
Method in brief: as §1

NCI-H2023 = system: NCI-H2023
Method in brief: as §1

NCI-H2126 = system: NCI-H2126
Method in brief: as §1

NCI-H2228 = system: NCI-H2228
Method in brief: as §1

NCI-H23 = system: NCI-H23
Method in brief: as §1

NCI-H2405 = system: NCI-H2405
Method in brief: as §1

NCI-H358 = system: NCI-H358
Method in brief: as §1

NCI-H838 = system: NCI-H838
Method in brief: as §1

SK-LU-1 = system: SK-LU-1
Method in brief: as §1

## CC(=O)O[C@@]12CO[C@@H]1C[C@H](O)[C@@]1(C)C(=O)[C@H](O)C3=C(C)[C@@H](OC(=O)[C@H](O)[C@@H](NC(=O)OC(C)(C)C)c4ccccc4)C[C@@](O)([C@@H](OC(=O)c4ccccc4)[C@H]21)C3(C)C [Docetaxel] + COc1cc2c(Oc3ccc(NC(=O)C4(C(=O)Nc5ccc(F)cc5)CC4)cc3F)ccnc2cc1OCCCN1CCOCC1 [Foretinib] (partner 0.25 µM)
ABC-1; first compound 0.0002 µM
  relative viability: 1.16
ABC-1; first compound 0.000632 µM
  relative viability: 1.18
ABC-1; first compound 0.002 µM
  relative viability: 0.333
ABC-1; first compound 0.006325 µM
  relative viability: 0.351
ABC-1; first compound 0.02 µM
  relative viability: 0.216
COR-L23; first compound 0.0002 µM
  relative viability: 0.891
COR-L23; first compound 0.000632 µM
  relative viability: 0.896
COR-L23; first compound 0.002 µM
  relative viability: 0.561
COR-L23; first compound 0.006325 µM
  relative viability: 0.173
COR-L23; first compound 0.02 µM
  relative viability: 0.116
ChaGo-K-1; first compound 0.0002 µM
  relative viability: 0.89
ChaGo-K-1; first compound 0.000632 µM
  relative viability: 0.824
ChaGo-K-1; first compound 0.002 µM
  relative viability: 0.439
ChaGo-K-1; first compound 0.006325 µM
  relative viability: 0.329
ChaGo-K-1; first compound 0.02 µM
  relative viability: 0.174
EMC-BAC-2; first compound 0.0002 µM
  relative viability: 1.02
EMC-BAC-2; first compound 0.000632 µM
  relative viability: 0.948
EMC-BAC-2; first compound 0.002 µM
  relative viability: 0.36
EMC-BAC-2; first compound 0.006325 µM
  relative viability: 0.348
EMC-BAC-2; first compound 0.02 µM
  relative viability: 0.205
HARA; first compound 0.0002 µM
  relative viability: 0.709
HARA; first compound 0.000632 µM
  relative viability: 0.128
HARA; first compound 0.002 µM
  relative viability: 0.146
HARA; first compound 0.006325 µM
  relative viability: 0.0748
HARA; first compound 0.02 µM
  relative viability: 0.0559
HCC-15; first compound 0.0002 µM
  relative viability: 0.906
HCC-15; first compound 0.000632 µM
  relative viability: 0.472
HCC-15; first compound 0.002 µM
  relative viability: 0.233
HCC-15; first compound 0.006325 µM
  relative viability: 0.27
HCC-15; first compound 0.02 µM
  relative viability: 0.162
HCC-366; first compound 0.0002 µM
  relative viability: 0.85
HCC-366; first compound 0.000632 µM
  relative viability: 0.122
HCC-366; first compound 0.002 µM
  relative viability: 0.201
HCC-366; first compound 0.006325 µM
  relative viability: 0.0376
HCC-366; first compound 0.02 µM
  relative viability: 0.0329
HCC-78; first compound 0.0002 µM
  relative viability: 0.634
HCC-78; first compound 0.000632 µM
  relative viability: 0.493
HCC-78; first compound 0.002 µM
  relative viability: 0.461
HCC-78; first compound 0.006325 µM
  relative viability: 0.42
HCC-78; first compound 0.02 µM
  relative viability: 0.34
HOP-62; first compound 0.0002 µM
  relative viability: 1.07
HOP-62; first compound 0.000632 µM
  relative viability: 0.732
HOP-62; first compound 0.002 µM
  relative viability: 0.427
HOP-62; first compound 0.006325 µM
  relative viability: 0.295
LC-2-ad; first compound 0.0002 µM
  relative viability: 0.882
LC-2-ad; first compound 0.000632 µM
  relative viability: 0.494
LC-2-ad; first compound 0.002 µM
  relative viability: 0.441
LC-2-ad; first compound 0.006325 µM
  relative viability: 0.395
NCI-H1395; first compound 0.0002 µM
  relative viability: 0.883
NCI-H1395; first compound 0.000632 µM
  relative viability: 0.874
NCI-H1395; first compound 0.002 µM
  relative viability: 0.904
NCI-H1395; first compound 0.006325 µM
  relative viability: 0.456
NCI-H1395; first compound 0.02 µM
  relative viability: 0.342
NCI-H1793; first compound 0.0002 µM
  relative viability: 0.592
NCI-H1793; first compound 0.000632 µM
  relative viability: 0.493
NCI-H1793; first compound 0.002 µM
  relative viability: 0.391
NCI-H1793; first compound 0.006325 µM
  relative viability: 0.204
NCI-H1793; first compound 0.02 µM
  relative viability: 0.186
NCI-H1944; first compound 0.0002 µM
  relative viability: 0.85
NCI-H1944; first compound 0.000632 µM
  relative viability: 0.86
NCI-H1944; first compound 0.002 µM
  relative viability: 0.692
NCI-H1944; first compound 0.006325 µM
  relative viability: 0.31
NCI-H1944; first compound 0.02 µM
  relative viability: 0.151
NCI-H1993; first compound 0.0002 µM
  relative viability: 0.78
NCI-H1993; first compound 0.000632 µM
  relative viability: 0.803
NCI-H1993; first compound 0.002 µM
  relative viability: 0.659
NCI-H1993; first compound 0.006325 µM
  relative viability: 0.671
NCI-H1993; first compound 0.02 µM
  relative viability: 0.51
NCI-H2023; first compound 0.0002 µM
  relative viability: 0.735
NCI-H2023; first compound 0.000632 µM
  relative viability: 0.868
NCI-H2023; first compound 0.002 µM
  relative viability: 0.111
NCI-H2023; first compound 0.006325 µM
  relative viability: 0.102
NCI-H2023; first compound 0.02 µM
  relative viability: 0.0789
NCI-H2126; first compound 0.0002 µM
  relative viability: 1.08
NCI-H2126; first compound 0.000632 µM
  relative viability: 1.14
NCI-H2126; first compound 0.002 µM
  relative viability: 0.588
NCI-H2126; first compound 0.006325 µM
  relative viability: 0.456
NCI-H2126; first compound 0.02 µM
  relative viability: 0.228
NCI-H2228; first compound 0.0002 µM
  relative viability: 0.785
NCI-H2228; first compound 0.000632 µM
  relative viability: 0.222
NCI-H2228; first compound 0.002 µM
  relative viability: 0.185
NCI-H2228; first compound 0.006325 µM
  relative viability: 0.145
NCI-H2228; first compound 0.02 µM
  relative viability: 0.137
NCI-H23; first compound 0.0002 µM
  relative viability: 0.964
NCI-H23; first compound 0.000632 µM
  relative viability: 0.859
NCI-H23; first compound 0.002 µM
  relative viability: 0.705
NCI-H23; first compound 0.006325 µM
  relative viability: 0.188
NCI-H23; first compound 0.02 µM
  relative viability: 0.147
NCI-H2405; first compound 0.0002 µM
  relative viability: 1.05
NCI-H2405; first compound 0.000632 µM
  relative viability: 1
NCI-H2405; first compound 0.002 µM
  relative viability: 0.6
NCI-H2405; first compound 0.006325 µM
  relative viability: 0.402
NCI-H2405; first compound 0.02 µM
  relative viability: 0.306
NCI-H358; first compound 0.0002 µM
  relative viability: 0.66
NCI-H358; first compound 0.000632 µM
  relative viability: 0.217
NCI-H358; first compound 0.006325 µM
  relative viability: 0.122
NCI-H358; first compound 0.02 µM
  relative viability: 0.0708
NCI-H838; first compound 0.0002 µM
  relative viability: 0.98
NCI-H838; first compound 0.000632 µM
  relative viability: 1.03
NCI-H838; first compound 0.002 µM
  relative viability: 0.262
NCI-H838; first compound 0.006325 µM
  relative viability: 0.283
NCI-H838; first compound 0.02 µM
  relative viability: 0.162
SK-LU-1; first compound 0.0002 µM
  relative viability: 0.737
SK-LU-1; first compound 0.000632 µM
  relative viability: 0.459
SK-LU-1; first compound 0.002 µM
  relative viability: 0.451
SK-LU-1; first compound 0.006325 µM
  relative viability: 0.275
SK-LU-1; first compound 0.02 µM
  relative viability: 0.196
